The results in this text go back to publication PMC5405701 (ChemMedChem, 2017).

Where two headings read alike, the source gives them in different places.

The subject of experiment [1] is MCF-7 breast cancer cells. The experiment in a line: antiproliferative activity, MTT assay, MCF-7. The conditions noted are these: Homo sapiens, MCF7, 72 h, read-out: MCF-7 Inhibition (%). For orientation: Tetrazolium assays rely on reduction of a dye to a coloured formazan, in cell work by metabolically active cells.
For a further experiment, the target named is ERα (Homo sapiens, UniProt P03372). The experiment in a line: cell-based. Format: cell-based. Particulars: for Agonist Mode ERα Eff (%E2): maximal response as percentage of response to 10^−8 M E2, HEK293T; for transcriptional activity profile on ERα: reporter gene assay.
Sequence of ERα (P03372 whole entry): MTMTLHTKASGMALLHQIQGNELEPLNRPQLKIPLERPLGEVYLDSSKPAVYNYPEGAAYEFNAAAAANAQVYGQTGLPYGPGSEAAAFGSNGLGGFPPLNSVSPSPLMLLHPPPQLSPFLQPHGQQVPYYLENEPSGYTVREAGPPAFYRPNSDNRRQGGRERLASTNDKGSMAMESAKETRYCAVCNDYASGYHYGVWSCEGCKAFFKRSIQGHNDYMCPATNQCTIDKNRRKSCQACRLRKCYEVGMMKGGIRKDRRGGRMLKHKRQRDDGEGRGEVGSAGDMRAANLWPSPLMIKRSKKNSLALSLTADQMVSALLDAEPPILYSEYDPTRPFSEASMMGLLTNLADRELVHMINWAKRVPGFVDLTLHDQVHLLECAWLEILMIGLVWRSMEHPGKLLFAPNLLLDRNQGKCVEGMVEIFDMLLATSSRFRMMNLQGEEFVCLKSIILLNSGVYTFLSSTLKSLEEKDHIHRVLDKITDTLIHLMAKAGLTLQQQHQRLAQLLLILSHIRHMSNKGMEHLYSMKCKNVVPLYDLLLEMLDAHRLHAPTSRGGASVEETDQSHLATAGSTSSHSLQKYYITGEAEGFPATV
For the next experiment, the target named is ERβ (Homo sapiens, UniProt Q92731). The experiment in a line: cell-based. The conditions noted are these: for Emax: HEK-293T, 24 h, read-out: Agonist Mode ERβ Eff (%E2); for transcriptional activity profile on ERβ: reporter gene assay, HEK293T. Format: cell-based. For orientation: Reporter assays use an easily measured gene product as a stand-in for the process of interest.
Sequence of ERβ (Q92731 whole entry): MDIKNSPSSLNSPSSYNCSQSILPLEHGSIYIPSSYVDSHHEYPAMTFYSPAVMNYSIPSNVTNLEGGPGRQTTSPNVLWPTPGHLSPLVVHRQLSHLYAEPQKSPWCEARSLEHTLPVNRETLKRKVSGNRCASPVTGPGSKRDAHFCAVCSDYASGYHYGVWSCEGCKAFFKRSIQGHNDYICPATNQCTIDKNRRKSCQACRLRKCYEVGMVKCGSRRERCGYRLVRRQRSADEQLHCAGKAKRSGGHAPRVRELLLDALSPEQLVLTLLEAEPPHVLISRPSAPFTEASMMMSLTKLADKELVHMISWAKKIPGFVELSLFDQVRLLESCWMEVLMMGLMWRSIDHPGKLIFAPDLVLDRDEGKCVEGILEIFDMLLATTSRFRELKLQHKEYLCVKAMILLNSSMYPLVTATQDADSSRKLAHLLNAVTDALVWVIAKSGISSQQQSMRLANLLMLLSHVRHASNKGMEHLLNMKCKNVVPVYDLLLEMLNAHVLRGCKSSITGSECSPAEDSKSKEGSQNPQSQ

For experiment [2], the target named is human ERβ ligand binding domain (LBD) (Homo sapiens, UniProt Q92731). Kind of experiment: competitive fluorometric. Particulars: for β/α: ratio of RBA ERβ to RBA ERα.
Sequence of human ERβ ligand binding domain (LBD) (Q92731 264-498 limits assumed): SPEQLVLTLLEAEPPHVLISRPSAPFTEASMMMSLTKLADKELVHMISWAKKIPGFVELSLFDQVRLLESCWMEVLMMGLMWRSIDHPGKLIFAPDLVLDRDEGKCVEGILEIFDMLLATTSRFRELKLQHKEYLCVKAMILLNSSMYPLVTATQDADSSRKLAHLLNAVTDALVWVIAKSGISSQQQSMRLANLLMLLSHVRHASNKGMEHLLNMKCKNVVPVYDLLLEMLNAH

Turning to `Oc1ccc(-c2cc(-c3ccc(O)cc3)c(-c3ccc(O)cc3)[se]2)cc1` [Compound 8a, 2,3,5-Tris(4-hydroxyphenyl)selenophene], in experiment [1], the inhibition (in general, the percentage by which the read-out fell short of the control) at 10 µM stood at 29.6%. At ERα, the “Agonist Mode ERα Eff (%E2)” value is listed as −4 ± 3 %E2. Further, on ERα (HEK293T), the “transcriptional activity profile on ERα” value was “antagonist”. Moreover, at ERβ, the Emax is 12 ± 3% and the “transcriptional activity profile on ERβ” value is recorded as “antagonist”. For the same compound, the β/α in experiment [2] was found to be 1.15.

Consider `Oc1ccc(-c2ccc(-c3ccc(O)cc3)[se]2)cc1` [Compound 2a, 2,5-Bis(4-hydroxyphenyl)selenophene], for which the inhibition at 10 µM in experiment [1] is 0%. For the same compound, the “Agonist Mode ERα Eff (%E2)” value on ERα was 16 ± 2 %E2. Besides, the “transcriptional activity profile on ERα” value at ERα (HEK293T) is given as “partial antagonist”. On ERβ, the Emax stood at 11 ± 4% and the “transcriptional activity profile on ERβ” value was “partial antagonist”. Moreover, the β/α in experiment [2] was found to be 4.70.

`Cc1cc(-c2c[se]cc2-c2ccc(O)c(C)c2)ccc1O` [Compound 4c, 3,4-Bis(4-hydroxy-3-methylphenyl)selenophene]: the inhibition at 10 µM in experiment [1] was found to be 0%. Besides, on ERα, the EC50 (as a rule, the concentration needed to bring the measured effect to its halfway point) worked out at 320 nM and the “Agonist Mode ERα Eff (%E2)” value stood at 32 ± 8 %E2. On ERβ, it took 1150 nM to reach a half-maximal effect (EC50) and the Emax is 54 ± 10%. Moreover, the β/α in experiment [2] was 0.87.

On to `Cc1cc(-c2cc(Br)c(-c3cc(C)c(O)c(C)c3)[se]2)cc(C)c1O` [Compound 6d, 3-Bromo-2,5-bis(4-hydroxy-3,5-dimethylphenyl)selenophene], for which the inhibition at 10 µM in experiment [1] worked out at 26.5%. Further, the “Agonist Mode ERα Eff (%E2)” value on ERα stood at 16 ± 4 %E2. Further, the Emax on ERβ was 15 ± 6%. In addition, the β/α in experiment [2] stood at 0.43.

Take `Cc1cc(O)ccc1-c1c[se]cc1-c1ccc(O)cc1C` [Compound 4b, 3,4-Bis(4-hydroxy-2-methylphenyl)selenophene]: the inhibition at 10 µM in experiment [1] was determined as 0%. For the same compound, at ERα, the “Agonist Mode ERα Eff (%E2)” value came out at 19 ± 4 %E2. For the same compound, on ERβ, the concentration giving a half-maximal response (EC50) turned out to be 34 nM and the Emax amounted to 62 ± 8%. Moreover, in experiment [2], the β/α stood at 24.81.

Regarding `Cc1cc(-c2ccc(-c3cc(C)c(O)c(C)c3)[se]2)cc(C)c1O` [Compound 2d, 2,5-Bis(4-hydroxy-3,5-dimethylphenyl)selenophene], the inhibition at 10 µM in experiment [1] amounted to 0%. At ERα, the “Agonist Mode ERα Eff (%E2)” value was determined as 12 ± 4 %E2. Moreover, at ERα (HEK293T), the “transcriptional activity profile on ERα” value was “inactive”. Further, at ERβ, the Emax was 38 ± 6% and the “transcriptional activity profile on ERβ” value was “inactive”. For the same compound, the β/α in experiment [2] is recorded as over 121.

Turning to `Cc1cc(-c2cc(Br)c(-c3ccc(O)c(C)c3)[se]2)ccc1O` [Compound 6c, 3-Bromo-2,5-bis(4-hydroxy-3-methylphenyl)selenophene], the inhibition at 10 µM in experiment [1] came to 26.1%. Further, on ERα, the “Agonist Mode ERα Eff (%E2)” value is −3 ± 1 %E2. Further, at ERβ, the response was half-maximal at 441 nM (EC50) and the Emax was determined as 46 ± 1%. For the same compound, in experiment [2], the β/α is listed as 4.40.

Regarding `Oc1ccc(-c2cc(Br)c(-c3ccc(O)c(Cl)c3)[se]2)cc1Cl` [Compound 6e, 3-Bromo-2,5-bis(3-chloro-4-hydroxyphenyl)selenophene], in experiment [1], the inhibition at 10 µM is 11.3%. Moreover, the “Agonist Mode ERα Eff (%E2)” value at ERα is on record as −23 ± 3 %E2. Further, at ERβ, the Emax worked out at 27 ± 2%. The β/α in experiment [2] amounted to 0.25.

Turning to `Cc1cc(-c2ccc(-c3ccc(O)c(C)c3)[se]2)ccc1O` [Compound 2c, 2,5-Bis(4-hydroxy-3-methylphenyl)selenophene], the inhibition at 10 µM in experiment [1] came out at 9.3%. Further, at ERα, the “Agonist Mode ERα Eff (%E2)” value stood at 33 ± 6 %E2. For the same compound, the “transcriptional activity profile on ERα” value on ERα (HEK293T) was “inactive”. For the same compound, at ERβ, the Emax is 24 ± 3% and the “transcriptional activity profile on ERβ” value is “inactive”. For the same compound, the β/α in experiment [2] is given as over 94.

For the compound `Oc1ccc(-c2ccc(-c3ccc(O)c(Cl)c3)[se]2)cc1Cl` [Compound 2h, 2,5-Bis(3-chloro-4-hydroxyphenyl)selenophene], the inhibition at 10 µM in experiment [1] amounted to 5.3%. Further, on ERα, the response was half-maximal at 40 nM (EC50) and the “Agonist Mode ERα Eff (%E2)” value stood at 49 ± 3 %E2. For the same compound, the “transcriptional activity profile on ERα” value on ERα (HEK293T) is listed as “partial agonist”. The Emax at ERβ is 22 ± 8%. In experiment [2], the β/α amounted to 5.10.

In the case of `Oc1ccc(-c2cc(Br)c(-c3ccc(O)cc3F)[se]2)c(F)c1` [Compound 6g, 3-Bromo-2,5-bis(2-fluoro-4-hydroxyphenyl)selenophene], the inhibition at 10 µM in experiment [1] came out at 8.1%. Besides, the “Agonist Mode ERα Eff (%E2)” value at ERα is 73 ± 9 %E2. For the same compound, the Emax at ERβ is 50 ± 3%. Also, the β/α in experiment [2] is 1.30.

Consider `Oc1ccc(F)c(-c2ccc(-c3cc(O)ccc3F)[se]2)c1` [Compound 2i, 2,5-Bis(2-fluoro-5-hydroxyphenyl)selenophene], for which the inhibition at 10 µM in experiment [1] worked out at 17.9%. For the same compound, the “Agonist Mode ERα Eff (%E2)” value at ERα is 25 ± 8 %E2. Moreover, at ERβ, the EC50 is 130 nM, the Emax stood at 55 ± 5% and the “transcriptional activity profile on ERβ” value is recorded as “partial agonist”. Further, the β/α in experiment [2] worked out at 0.90.

As for `Cc1cc(O)cc(C)c1-c1ccc(-c2c(C)cc(O)cc2C)[se]1` [Compound 2e, 2,5-Bis(4-hydroxy-2,6-dimethylphenyl)selenophene], the inhibition at 10 µM in experiment [1] was 19.3%. For the same compound, on ERα, the “Agonist Mode ERα Eff (%E2)” value is recorded as −7 ± 3 %E2. Besides, on ERβ, the EC50 is 434 nM and the Emax turned out to be 60 ± 4%. In addition, in experiment [2], the β/α is on record as 1.00.

Turning to `Cc1cc(O)ccc1-c1ccc(-c2ccc(O)cc2C)[se]1` [Compound 2b, 2,5-Bis(4-hydroxy-2-methylphenyl)selenophene], in experiment [1], the inhibition at 10 µM is 3.4%. On ERα, the concentration giving a half-maximal response (EC50) stood at 1360 nM and the “Agonist Mode ERα Eff (%E2)” value is given as 157 ± 12 %E2. Moreover, on ERα (agonist mode), the “efficacy on ERα, times greater than that of estradiol” value came to 1.5 times. On ERα (HEK293T), the “transcriptional activity profile on ERα” value is “superagonist”. Further, at ERβ, the EC50 is 79 nM, the Emax turned out to be 82 ± 7% and the “transcriptional activity profile on ERβ” value is “agonist”. The β/α in experiment [2] is on record as 1.98.

Turning to `Oc1ccc(-c2c[se]cc2-c2ccc(O)cc2F)c(F)c1` [Compound 4e, 3,4-Bis(2-fluoro-4-hydroxyphenyl)selenophene], the inhibition at 10 µM in experiment [1] stood at 0%. Moreover, the “Agonist Mode ERα Eff (%E2)” value at ERα is recorded as 35 ± 5 %E2. For the same compound, the Emax at ERβ was determined as 17 ± 2%. Besides, the β/α in experiment [2] turned out to be 2.19.

`Oc1ccc(-c2ccc(-c3ccc(O)cc3F)[se]2)c(F)c1` [Compound 2f, 2,5-Bis(2-fluoro-4-hydroxyphenyl)selenophene]: in experiment [1], the inhibition at 10 µM amounted to 10.5%. Besides, at ERα, the EC50 stood at 230 nM and the “Agonist Mode ERα Eff (%E2)” value stood at 68 ± 2 %E2. Further, the “ERα agonist potency, fold more potent than 2b” value at ERα (agonist mode, relative to 2b) is given as “about 6 fold”. Besides, the “transcriptional activity profile on ERα” value on ERα (HEK293T) is on record as “full ERα agonist”. Also, on ERβ, it took 170 nM to reach a half-maximal effect (EC50) and the Emax came to 71 ± 1%. For the same compound, the β/α in experiment [2] is reported as 4.11. Besides, the “fold better binding to ERβ than 2a” value in experiment [2] (relative to 2a) worked out at 8 fold.

With `Oc1cc(-c2ccc(-c3ccc(F)c(O)c3)[se]2)ccc1F` [Compound 2j, 2,5-Bis(4-fluoro-5-hydroxyphenyl)selenophene], the inhibition at 10 µM in experiment [1] was 4.4%. Besides, the “Agonist Mode ERα Eff (%E2)” value on ERα turned out to be 25 ± 8 %E2. Also, on ERβ, it took 150 nM to reach a half-maximal effect (EC50), the Emax was found to be 42 ± 10% and the “transcriptional activity profile on ERβ” value is listed as “partial agonist”. For the same compound, in experiment [2], the β/α is 3.37.

`Cc1cc(-c2cc(-c3ccc(O)c(C)c3)c(-c3ccc(O)c(C)c3)[se]2)ccc1O` [Compound 8b, 2,3,5-Tris(4-hydroxy-3-methylphenyl)selenophene]: the inhibition at 10 µM in experiment [1] came to 16.6%. At ERα, the EC50 was 320 nM and the “Agonist Mode ERα Eff (%E2)” value was 112 ± 29 %E2. Moreover, the “transcriptional activity profile on ERα” value on ERα (HEK293T) is reported as “superagonists”. Moreover, on ERβ, the response was half-maximal at 33 nM (EC50) and the Emax came to 77 ± 8%. In addition, the β/α in experiment [2] is given as 9.92.

For the compound `Oc1ccc(-c2ccc(-c3ccc(O)cc3Cl)[se]2)c(Cl)c1` [Compound 2g, 2,5-Bis(2-chloro-4-hydroxyphenyl)selenophene], in experiment [1], the inhibition at 10 µM worked out at 19.6%. The “Agonist Mode ERα Eff (%E2)” value on ERα was 44 ± 13 %E2. Also, on ERα (read-out: Agonist Mode ERα EC50, compound alone up to 10^−5 M, HEK293T), the EC50 worked out at 1280 nM. At ERβ, the Emax worked out at 14 ± 5%. Further, in experiment [2], the β/α is reported as 2.07.

As to `Oc1ccc(-c2c[se]cc2-c2ccc(O)c(F)c2)cc1F` [Compound 4d, 3,4-Bis(3-fluoro-4-hydroxyphenyl)selenophene], the inhibition at 10 µM in experiment [1] worked out at 0%. Also, the “Agonist Mode ERα Eff (%E2)” value on ERα was found to be 21 ± 6 %E2. Moreover, the Emax on ERβ worked out at 21 ± 3%. Moreover, the β/α in experiment [2] is on record as 2.67.

For the compound `Oc1cc(-c2cc(Br)c(-c3ccc(F)c(O)c3)[se]2)ccc1F` [Compound 6f, 3-Bromo-2,5-bis(4-fluoro-5-hydroxyphenyl)selenophene], the inhibition at 10 µM in experiment [1] is 0%. For the same compound, at ERα, the half-maximal effective concentration (EC50) stood at 120 nM and the “Agonist Mode ERα Eff (%E2)” value worked out at 226 ± 28 %E2. Further, the “efficacy on ERα, times greater than that of estradiol” value at ERα (agonist mode) is listed as 2.2 times. Moreover, the “transcriptional activity profile on ERα” value at ERα (HEK293T) is “superagonist”. Moreover, on ERβ, the EC50 was determined as 300 nM and the Emax worked out at 31 ± 7%. Also, the β/α in experiment [2] is recorded as 0.28.

On to `Oc1ccc(-c2c[se]cc2-c2ccc(O)cc2)cc1` [Compound 4a, 3,4-Bis(4-hydroxyphenyl)selenophene], for which the inhibition at 10 µM in experiment [1] came to 0%. Also, on ERα, the “Agonist Mode ERα Eff (%E2)” value was found to be 7 ± 3 %E2. Further, on ERβ, the Emax worked out at 16 ± 7% and the “transcriptional activity profile on ERβ” value is “antagonist”. The β/α in experiment [2] amounted to 6.28.
